From patent US20240343733A1, “COMPOUNDS FOR TARGETING DEGRADATION OF IRAK4 PROTEINS” (BIOGEN MA INC., priority 2021, published 2024) come the findings set out here.

The test deals with T1, IRAK4 (Homo sapiens, UniProt Q9NWZ3).
T1 construct: 293Tcells expressing HiBiT-tagged IRAK4 were then added into 384-well plates
T1 sequence (Q9NWZ3 1-460): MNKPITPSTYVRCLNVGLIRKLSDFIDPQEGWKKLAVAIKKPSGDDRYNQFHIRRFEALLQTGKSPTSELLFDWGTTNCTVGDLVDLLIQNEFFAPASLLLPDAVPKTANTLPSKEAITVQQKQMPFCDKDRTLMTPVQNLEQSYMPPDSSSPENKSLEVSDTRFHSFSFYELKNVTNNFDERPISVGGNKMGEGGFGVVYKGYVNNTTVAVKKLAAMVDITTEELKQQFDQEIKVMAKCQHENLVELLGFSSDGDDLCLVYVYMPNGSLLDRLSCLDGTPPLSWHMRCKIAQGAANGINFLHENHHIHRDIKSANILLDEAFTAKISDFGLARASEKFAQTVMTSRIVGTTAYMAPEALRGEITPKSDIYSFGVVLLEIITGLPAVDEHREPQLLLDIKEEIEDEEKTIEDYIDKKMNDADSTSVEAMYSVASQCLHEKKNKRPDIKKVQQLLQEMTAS
Description: IRAK4 Degradation Assay, HiBiT Method. It counts as cell-based. The settings on record: 293T cells expressing HiBiT-tagged IRAK4, 6 hours. In outline:
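Luminescent read-out with Nano-Glo HiBiT lytic reagent after 6 h compound exposure at 37 °C. Cells were HiBiT-IRAK4 knock-in 293T (C-terminal tag), 10,000 per well. Compounds ran as 11-point half-log dilutions from […] highest dose, duplicate wells; DMSO served as negative control.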
A general note: HiBiT is a short tag that completes a luciferase, so light tracks the accessible tagged protein.
For `CC(C)Oc1cc2nc(C3CCN(C(=O)CN4CCC(c5cnc(NC6CCC(=O)NC6=O)nc5)CC4)CC3)cn2cc1C(=O)Nc1cccc(C(F)F)n1` (centres unmarked) [Example 85, N-[6-(difluoromethyl)-2-pyridyl]-2-[1-[2-[4-[2-[(2,6-dioxo-3-piperidyl)amino]pyrimidin-5-yl]-1-piperidyl]acetyl]-4-piperidyl]-7-isopropoxy-imidazo[1,2-a]pyridine-6-carboxamide], the DC50 was 10 to 100 nM. The same measure for `CC(C)Oc1cc2nc(C3CCN(C(=O)CN4CCC(c5ccc(NC6CCC(=O)NC6=O)nc5)CC4)CC3)cn2cc1C(=O)Nc1cccc(C(F)F)n1` (centres unmarked) [Example 86, N-[6-(difluoromethyl)-2-pyridyl]-2-[1-[2-[4-[6-[(2,6-dioxo-3-piperidyl)amino]-3-pyridyl]-1-piperidyl]acetyl]-4-piperidyl]-7-isopropoxy-imidazo[1,2-a]pyridine-6-carboxamide]: 10 to 100 nM; for `CC(C)Oc1cc2nc(C3CCN(C(=O)CN4CCC(c5ccc(C6(F)CCC(=O)NC6=O)cc5)CC4)CC3)cn2cc1C(=O)Nc1cccc(C(F)F)n1` (centres unmarked) [Example 88, N-[6-(difluoromethyl)-2-pyridyl]-2-[1-[2-[4-[4-(3-fluoro-2,6-dioxo-3-piperidyl)phenyl]-1-piperidyl]acetyl]-4-piperidyl]-7-isopropoxy-imidazo[1,2-a]pyridine-6-carboxamide]: 10 to 100 nM. The same measure for `CC(C)Oc1cc2nc(C3CCN(C(=O)CN4CCC(c5ccc(C6(F)CCC(=O)NC6=O)cc5)CC4)CC3)cn2cc1C(=O)Nc1cnn2cccnc12` (centres unmarked) [Example 89, 2-[1-[2-[4-[4-(3-fluoro-2,6-dioxo-3-piperidyl)phenyl]-1-piperidyl]acetyl]-4-piperidyl]-7-isopropoxy-N-pyrazolo[1,5-a]pyrimidin-3-yl-imidazo[1,2-a]pyridine-6-carboxamide]: < 10 nM. In the case of `CC(C)Oc1cc2nc(C3CCN(C(=O)CC4CC5(C4)CN(c4ccc(C6CCC(=O)NC6=O)cc4)C5)CC3)cn2cc1C(=O)Nc1cccc(C(F)F)n1` (centres unmarked) [Example 90, N-[6-(difluoromethyl)-2-pyridyl]-2-[1-[2-[2-[4-(2,6-dioxo-3-piperidyl)phenyl]-2-azaspiro[3.3]heptan-6-yl]acetyl]-4-piperidyl]-7-isopropoxy-imidazo[1,2-a]pyridine-6-carboxamide] it was 10 to 100 nM; in that of `CC(C)Oc1cc2nc(C3CCN(C(=O)CC4CCN(c5ccc6c([C@H]7CCC(=O)NC7=O)nn(C)c6c5)CC4)CC3)cn2cc1C(=O)Nc1cccc(C(F)F)n1` [Example 91, (R)—N-(6-(difluoromethyl)pyridin-2-yl)-2-(1-(2-(1-(3-(2,6-dioxopiperidin-3-yl)-1-methyl-1H-indazol-6-yl)piperidin-4-yl)acetyl)piperidin-4-yl)-7-isopropoxyimidazo[1,2-a]pyridine-6-carboxamide], 10 to 100 nM. Regarding `CC(C)Oc1cc2nc(C3CCN(C(=O)CC4CCN(c5ccc6c([C@@H]7CCC(=O)NC7=O)nn(C)c6c5)CC4)CC3)cn2cc1C(=O)Nc1cccc(C(F)F)n1` [Example 92, (S)—N-(6-(difluoromethyl)pyridin-2-yl)-2-(1-(2-(1-(3-(2,6-dioxopiperidin-3-yl)-1-methyl-1H-indazol-6-yl)piperidin-4-yl)acetyl)piperidin-4-yl)-7-isopropoxyimidazo[1,2-a]pyridine-6-carboxamide], the DC50 lay within 10 to 100 nM.

In turn, `CC(C)Oc1cc2nc(C3CCN(CC(=O)N4CCC(c5ccc(NC6CCC(=O)NC6=O)cc5)CC4)CC3)cn2cc1C(=O)Nc1ccccc1` (centres unmarked) [Example 93, 2-[1-[2-[4-[4-[(2,6-dioxo-3-piperidyl)amino]phenyl]-1-piperidyl]-2-oxo-ethyl]-4-piperidyl]-7-isopropoxy-N-phenyl-imidazo[1,2-a]pyridine-6-carboxamide] showed a DC50 of 100 to 500 nM.

Broadly, the DC50 is the concentration at which degradation of the target reaches its halfway point. Low readings indicate a more potent degrader, high ones a less potent degrader.
